Results on 1 molecule are retold here after patent US20180360721A1, “PEPTIDE FOR STIMULATING MELANOGENESIS” (priority 2017, published 2018).

Where a SMILES comes first, the peptide text is derived from it.

In this series the test system is B16F10 cells. The series is described as follows: MTT assay of cell viability. The format is cell-based, mouse. Particulars: different concentrations, 24, 48 or 72 hours. The procedure: B16F10 is a melanoma cell line isolated from mouse skin (American Type Culture Collection, USA) and was cultured in phenol red-free Dulbecco's Modified Eagle Medium (DMEM) containing 10% (v/v) FBS and penicillin/streptomycin (100 IU/[…]) in 5% CO2 at 37° C.
The cells (2×10^3) in 100 μl complete DMEM were seeded in 96-well plates and treated with the peptide of SEQ ID NO: 1 at different concentrations. The cells treated with ddH2O was used as controls. Ten microliters of 5 mg/ml 3-(4,5-dimethyl-2-thiazolyl)-2,5-diphenyl-2H-tetrazolium bromide solution (MTT; Sigma) was added to each well and incubated at 37° C. for 3 hours. After that, 100 μl 10% SDS in 0.01N HCl was added to dissolve the MTT formazan crystals. The resultant optical density was measured by spectrophotometry at dual wavelengths, 550 and 630 nm.

For `C[C@H](NC(=O)[C@H](CO)NC(=O)[C@@H](N)CC(N)=O)C(=O)N[C@H](C(=O)N[C@@H](CCC(=O)O)C(=O)N[C@@H](CCCNC(=N)N)C(=O)N[C@@H](CCC(=O)O)C(=O)O)[C@@H](C)O` [peptide of SEQ ID NO: 1, AsnSerAlaThrGluArgGlu] (H-NSATERE-OH), the “cell viability (MTT)” value is “did not significantly affect the viability”. Also, where the note is “listed as peptide having the amino acid sequence of SEQ ID NO: 1”, the “cell viability (MTT)” value was “did not significantly affect viability”.
